{"source": "patent US20250177422A1", "about": "(ZYLORION HEALTH INC., priority 2023, published 2025)", "key": {"mice": {"tested_on": "mice", "test": "Cognitive performance, the Y-maze", "format": "in vivo", "details": "oral, 15 days, FIG. 4", "description": "Cognitive performance, the Y-maze. Mice will be acclimated to a Y-maze having two familiar arms and one unfamiliar arm 1 day prior to testing (i.e., day-1). One the days of testing mice will be placed in the Y-maze and allowed to freely explore for 5 minutes. Behaviours scored will include total locomotion, time spent in each arm, number of arm entries, and correct alternations between the novel arm and familiar arms. A pro-cognitive effect will be reflected by increased time spent in the novel arm and increased percent correct alternations."}, "BDNF": {"tested_on": "BDNF", "test": "Brain levels of BDNF in mice after acute treatment", "format": "in vivo", "details": "1 hour after oral administration, Co-crystal Form A 3 mg/kg, Aripiprazole 0.3 mg/kg, FIG. 5"}, "[1]": {"tested_on": "neuronal progenitor/stem cell levels in mice brain", "test": "Neuronal progenitor/stem cell levels in mice brain (immunohistochemistry)", "format": "in vivo", "details": "14 days oral; co-crystal form A 3 mg/kg, aripiprazole 0.3 mg/kg; FIG. 6"}, "active neurons": {"tested_on": "active neurons", "test": "Neuronal activation in mice (number of active neurons)", "details": "21 days oral, co-crystal form A 3 mg/kg, aripiprazole 0.3 mg/kg, FIG. 7", "protocol": "For immunohistochemistry sampling, EdU (5-Ethynyl-2′-deoxyuridine, Lumiprobe, 100 μg/g) was injected together with the drugs for the first 7 days. On the day following the 14-day treatment period, the brains of the mice were dissected for subsequent analyses, including immunohistochemistry and electrophysiology (E-phys)."}}}
{"compound": "O=C1CCc2ccc(OCCCCN3CCN(c4cccc(Cl)c4Cl)CC3)cc2N1", "note": "[aripiprazole]", "values": [{"measurement": "short-term and working memory (Y-maze), compared to control", "setting": "mice", "result": "smaller but significant increase"}, {"measurement": "brain levels of BDNF", "setting": "BDNF", "result": "significant increase in brain levels of BDNF"}, {"measurement": "neuronal progenitor/stem cell levels in mice brain", "setting": "[1]", "result": "no significant effect"}, {"measurement": "change in neuronal activation (number of active neurons)", "setting": "active neurons", "result": "significant increase"}]}
